From the NIST ThermoML archive (doi:10.1016/j.jct.2004.09.002) come the findings set out here.

A short description of data set [1]: refractive index (Na D-line) (dimensionless). The note with it: 293.15 K; 101.33 kPa; Liquid; Standard Abbe refractometry.
The conditions of data set [2]: 293.15 K; 101.33 kPa; Liquid; Vibrating tube method.
Data set [3] can be described thus: Boiling temperature at pressure P. The note with it: 101.33 kPa; Liquid; Fischer boiling point apparatus.

Numbers after ± are expanded uncertainties.

As a reminder, the refractive index is the speed of light in vacuum divided by its phase velocity in the sample. One may read the mass density as the mass of a sample divided by its volume. Regarding `CCCC(=O)O` [butanoic acid], in data set [1], the refractive index is listed as 1.3982 ± 0.0012. Also, in data set [2], the mass density is recorded as 957.6 ± 0.5 kg/m3.

As to `CC(=O)OC1CCCCC1` [cyclohexyl ethanoate], the refractive index in data set [1] amounted to 1.4434 ± 0.0013. Further, the mass density in data set [2] was determined as 970.3 ± 1 kg/m3. Moreover, the “Boiling temperature at pressure P” value in data set [3] came out at 177.30 ± 0.2 °C.

Regarding `O` [water], the refractive index in data set [1] was 1.3324 ± 0.0012. The “Boiling temperature at pressure P” value in data set [3] was found to be 100.1 ± 0.2 °C.
